From patent publication US8431596B2 (Cancer Research Technology Limited, priority 2007, dated 2013)

The compounds below were run against T1, AXL (human catalytic domain) (Homo sapiens, UniProt P30530) (assay: AXL (human catalytic domain) Enzyme Activity Assay (IMAP fluorescence polarisation)). Conditions: further data set (WW-001 through WW-169, XX-001 through XX-469, YY-001 through YY-016, ZZ-001 through ZZ-003); 150 μM ATP.
T1 construct: purchased Upstate Ltd. 14-512
T1 sequence (P30530 473-894): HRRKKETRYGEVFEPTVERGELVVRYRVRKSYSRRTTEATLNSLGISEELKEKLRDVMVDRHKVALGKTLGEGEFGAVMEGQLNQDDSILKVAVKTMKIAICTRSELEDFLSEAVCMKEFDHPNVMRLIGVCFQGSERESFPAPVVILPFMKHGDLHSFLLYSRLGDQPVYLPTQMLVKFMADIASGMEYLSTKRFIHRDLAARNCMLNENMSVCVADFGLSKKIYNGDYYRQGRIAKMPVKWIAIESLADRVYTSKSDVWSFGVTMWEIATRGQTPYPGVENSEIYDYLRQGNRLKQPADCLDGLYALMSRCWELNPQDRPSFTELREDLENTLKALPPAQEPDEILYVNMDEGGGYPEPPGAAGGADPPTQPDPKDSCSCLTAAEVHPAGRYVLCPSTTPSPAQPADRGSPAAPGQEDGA
Format: biochemical
Procedure, shortened: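 Recombinant human AXL isoform 1 (aa473-894; final 15 nM) phosphorylated 100 nM fluorescein-CSK-tide with 150 μM ATP (KM) in HEPES pH 7.0/MgCl2/DTT buffer for 60 min at room temperature. IMAP fluorescence polarisation read after overnight binding; IC50 from 10-point 4-parameter logistic fits.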

IC50, 100 to 1000 nM:
CC(CNc1cccc(Nc2nc3cccc(-c4ccc5c(c4)OCCO5)n3n2)c1)N1CCCC1 (stereo not drawn) [XX-140]
C[C@@H](CN)Oc1ccc(Nc2nc3cccc(-c4ccc5c(c4)OCCO5)n3n2)cc1 [XX-141]
C[C@H](CN)Oc1ccc(Nc2nc3cccc(-c4ccc5c(c4)OCCO5)n3n2)cc1 [XX-142]
C[C@H](N)COc1ccc(Nc2nc3cccc(-c4ccc5c(c4)OCCO5)n3n2)cc1 [XX-143, [4-((S)-2-Amino-propoxy)-phenyl]-[5-(2,3-dihydro-benzo[1,4]dioxin-6-yl)-[1,2,4]triazolo[1,5-a]pyridin-2-yl]-amine]
NCCNS(=O)(=O)c1ccc(Nc2nc3cccc(-c4ccc5c(c4)OCCO5)n3n2)cc1 [XX-144]
O=S(=O)(c1ccc(Nc2nc3cccc(-c4ccc5c(c4)OCCO5)n3n2)cc1)N1CCNCC1 [XX-145]
c1cc(-c2ccc(OCC3CCCO3)cc2)n2nc(Nc3ccc(OCCN4CCCC4)cc3)nc2c1 (stereo not drawn) [XX-146]
CCN(CC)CCOc1cccc(Nc2nc3cccc(-c4ccc(N(C)C)c(C)c4)n3n2)c1 [XX-147]
C#CCOc1ccc(-c2cccc3nc(Nc4ccc(OCCN5CCCC5)cc4)nn23)cc1 [XX-148]
Cn1cc(-c2ccc(-c3cccc4nc(Nc5ccc(OCCN6CCCC6)cc5)nn34)cc2)cn1 [XX-149]
Oc1ccc(-c2cccc3nc(Nc4ccc(OCCN5CCCC5)cc4)nn23)cc1 [XX-151]
C[C@H](CN(C)C)Oc1ccc(Nc2nc3cccc(-c4ccc5c(c4)OCCO5)n3n2)cc1 [XX-155]
F[C@H]1CCN(CCOc2ccc(Nc3nc4cccc(-c5ccc6c(c5)OCCO6)n4n3)cc2)C1 [XX-157]
c1ccc(-c2cccc3nc(Nc4ccc(OCCN5CCCC5)cc4)nn23)cc1 [XX-159]
CC(Sc1ccc(Nc2nc3cccc(-c4ccc5c(c4)OCCO5)n3n2)cc1)C(N)=O (stereo not drawn) [XX-161]
c1ccc(-c2cccc(-c3cccc4nc(Nc5ccc(OCCN6CCCC6)cc5)nn34)c2)cc1 [XX-164, (5-Biphenyl-3-yl-[1,2,4]triazolo[1,5-a]pyridin-2-yl)-[4-(2-pyrrolidin-1-yl-ethoxy)-phenyl]-amine]
c1cc(-c2ccoc2)cc(-c2cccc3nc(Nc4ccc(OCCN5CCCC5)cc4)nn23)c1 [XX-165]
c1cc(-c2ccsc2)cc(-c2cccc3nc(Nc4ccc(OCCN5CCCC5)cc4)nn23)c1 [XX-166]
c1cc(-c2ccco2)cc(-c2cccc3nc(Nc4ccc(OCCN5CCCC5)cc4)nn23)c1 [XX-168]
Cn1nccc1-c1cccc(-c2cccc3nc(Nc4ccc(OCCN5CCCC5)cc4)nn23)c1 [XX-169]
Cc1nn(C)c(C)c1-c1cccc(-c2cccc3nc(Nc4ccc(OCCN5CCCC5)cc4)nn23)c1 [XX-170]
Cn1cc(-c2cccc(-c3cccc4nc(Nc5ccc(OCCN6CCCC6)cc5)nn34)c2)cn1 [XX-171]
CCn1cc(-c2cccc(-c3cccc4nc(Nc5ccc(OCCN6CCCC6)cc5)nn34)c2)cn1 [XX-172]
CCN(CC)CCNS(=O)(=O)c1ccc(Nc2nc3cccc(-c4ccc5c(c4)OCCO5)n3n2)cc1 [XX-173]
O=C(Nc1ccccc1)Nc1cccc(-c2cccc3nc(Nc4ccc(OCCN5CCCC5)cc4)nn23)c1 [XX-174, 1-Phenyl-3-(3-{2-[4-(2-pyrrolidin-1-yl-ethoxy)-phenylamino]-[1,2,4]triazolo[1,5-a]pyridin-5-yl}-phenyl)-urea]
c1cc(OCC2CCCO2)cc(-c2cccc3nc(Nc4ccc(OCCN5CCCC5)cc4)nn23)c1 (stereo not drawn) [XX-175, [4-(2-Pyrrolidin-1-yl-ethoxy)-phenyl]-{5-[3-(tetrahydro-furan-2-ylmethoxy)-phenyl]-[1,2,4]triazolo[1,5-a]pyridin-2-yl}-amine]
O=C(Nc1cccc(Cl)c1)Nc1cccc(-c2cccc3nc(Nc4ccc(OCCN5CCCC5)cc4)nn23)c1 [XX-176]
O=C(Nc1cccc(-c2cccc3nc(Nc4ccc(OCCN5CCCC5)cc4)nn23)c1)c1cccc(Cl)c1 [XX-177]
O=C(Nc1cccc(-c2cccc3nc(Nc4ccc(OCCN5CCCC5)cc4)nn23)c1)C1CC1 [XX-178]
O=C(Nc1cccc(-c2cccc3nc(Nc4ccc(OCCN5CCCC5)cc4)nn23)c1)c1ccccc1 [XX-179]
O=C(Nc1cccc(-c2cccc3nc(Nc4ccc(OCCN5CCCC5)cc4)nn23)c1)c1cccnc1 [XX-180]
O=C(Nc1cccc(-c2cccc3nc(Nc4ccc(OCCN5CCCC5)cc4)nn23)c1)c1ccco1 [XX-181]
O=C(Nc1cccc(-c2cccc3nc(Nc4ccc(OCCN5CCCC5)cc4)nn23)c1)c1ccc2nonc2c1 [XX-182]
Nc1ccc(-c2cccc3nc(Nc4ccc(OCCN5CCCC5)cc4)nn23)cc1 [XX-184]
c1cc(-c2ccc(-c3ccoc3)cc2)n2nc(Nc3ccc(OCCN4CCCC4)cc3)nc2c1 [XX-185]
c1cc(-c2ccc(-c3ccsc3)cc2)n2nc(Nc3ccc(OCCN4CCCC4)cc3)nc2c1 [XX-186]
c1cc(-c2ccc(-c3cn[nH]c3)cc2)n2nc(Nc3ccc(OCCN4CCCC4)cc3)nc2c1 [XX-187]
c1coc(-c2ccc(-c3cccc4nc(Nc5ccc(OCCN6CCCC6)cc5)nn34)cc2)c1 [XX-188]
Cn1nccc1-c1ccc(-c2cccc3nc(Nc4ccc(OCCN5CCCC5)cc4)nn23)cc1 [XX-189]
Cc1noc(C)c1-c1ccc(-c2cccc3nc(Nc4ccc(OCCN5CCCC5)cc4)nn23)cc1 [XX-190]
CCn1cc(-c2ccc(-c3cccc4nc(Nc5ccc(OCCN6CCCC6)cc5)nn34)cc2)cn1 [XX-191]
O=C(Nc1cccc(-c2cccc3nc(Nc4ccc(OCCN5CCCC5)cc4)nn23)c1)c1ccno1 [XX-192]
c1ccc(Cn2cc(-c3cccc4nc(Nc5ccc(OCCN6CCCC6)cc5)nn34)cn2)cc1 [XX-193, [5-(1-Benzyl-1H-pyrazol-4-yl)-[1,2,4]triazolo[1,5-a]pyridin-2-yl]-[4-(2-pyrrolidin-1-yl-ethoxy)-phenyl]-amine]
CN(C)c1ccc(-c2cccc3nc(Nc4ccc(OCCN5CCCC5)cc4)nn23)cn1 [XX-198]
COC(=O)c1ccc(-c2cccc3nc(Nc4ccc(OCCN5CCCC5)cc4)nn23)cc1 [XX-199]
c1cc(-c2ccsc2)n2nc(Nc3ccc(OCCN4CCCC4)cc3)nc2c1 [XX-201]
c1cc(-c2cn[nH]c2)n2nc(Nc3ccc(OCCN4CCCC4)cc3)nc2c1 [XX-202, [5-(1H-Pyrazol-4-yl)-[1,2,4]triazolo[1,5-a]pyridin-2-yl]-[4-(2-pyrrolidin-1-yl-ethoxy)-phenyl]-amine]
c1coc(-c2cccc3nc(Nc4ccc(OCCN5CCCC5)cc4)nn23)c1 [XX-203]

IC50, 1000 to 10000 nM:
COc1cccc(-c2cccc3nc(Nc4ccc(OCCN5CCCC5)cc4)nn23)c1 [XX-150]
c1cc(NC2CCCC2)n2nc(Nc3ccc(OCCN4CCCC4)cc3)nc2c1 [XX-152, N*5*-Cyclopentyl-N*2*-[4-(2-pyrrolidin-1-yl-ethoxy)-phenyl]-[1,2,4]triazolo[1,5-a]pyridine-2,5-diamine]
CC(C)(C)OC(=O)Nc1cccc(-c2cccc3nc(Nc4ccc(OCCN5CCCC5)cc4)nn23)c1 [XX-156]
FC1(F)CCN(CCOc2ccc(Nc3nc4cccc(-c5ccc6c(c5)OCCO6)n4n3)cc2)C1 [XX-158]
O=C(CSc1ccc(Nc2nc3cccc(-c4ccc5c(c4)OCCO5)n3n2)cc1)N1CCCC1 [XX-160]
NC(=O)c1cccc(-c2cccc3nc(Nc4ccc(OCCN5CCCC5)cc4)nn23)c1 [XX-183]
COc1ccccc1-c1cccc2nc(Nc3ccc(OCCN4CCCC4)cc3)nn12 [XX-194]
FC(F)(F)c1ccccc1-c1cccc2nc(Nc3ccc(OCCN4CCCC4)cc3)nn12 [XX-195]
Oc1cc(F)ccc1-c1cccc2nc(Nc3ccc(OCCN4CCCC4)cc3)nn12 [XX-196]
COc1ncc(-c2cccc3nc(Nc4ccc(OCCN5CCCC5)cc4)nn23)cn1 [XX-197]
COc1ncccc1-c1cccc2nc(Nc3ccc(OCCN4CCCC4)cc3)nn12 [XX-200]
Cc1ccc(-c2cccc3nc(Nc4ccc(OCCN5CCCC5)cc4)nn23)cn1 [XX-204]

IC50, ≤ 100 nM:
CC(CNc1ccc(Nc2nc3cccc(-c4ccc5c(c4)OCCO5)n3n2)cc1)N1CCCC1 (stereo not drawn) [XX-139]
CN(C(=O)CN1CCCC1)c1ccc(Nc2nc3cccc(-c4ccc5c(c4)OCCO5)n3n2)cc1 [XX-153]
CN(CCN1CCCC1)c1ccc(Nc2nc3cccc(-c4ccc5c(c4)OCCO5)n3n2)cc1 [XX-154]
CCN(CC)CCOc1ccc(Nc2nc3cccc(-c4ccc5c(c4)OCCO5)n3n2)cn1 [XX-162]
CCN(CC)CCOc1cc(Nc2nc3cccc(-c4ccc5c(c4)OCCO5)n3n2)ccn1 [XX-163]
c1cc(-c2cn[nH]c2)cc(-c2cccc3nc(Nc4ccc(OCCN5CCCC5)cc4)nn23)c1 [XX-167]
